The source of these data is patent publication US8933122B2, “Use of cationic surfactants as sporicidal agents” (Laboratorios Miret, S.A., priority 2008, dated 2015).

Each structure is given as a SMILES string. Some results are limits rather than exact numbers.

This experiment deals with endospores from Clostridium sporogenes ATCC 7955. Description: Sporicidal activity, quantitative suspension test EN 13704:2002 (Example 5). The format is cell-based. The following applies: 60 minutes contact, 20° C.; for Test of LAE sporicidal activity (Na), surviving spores count: water as interfering substance, N 1.3 × 10^6 cfu/mL. How it is done: The determination of the sporicidal activity of LAE has been carried out according to the European standard EN 13704:2002 Chemical disinfectant—Quantitative suspension test for the evaluation of sporicidal activity of chemical disinfectants used in food, industrial, domestic and institutional areas—Test method and requirements”.
A test suspension containing endospores from Clostridium sporogenes ATCC 7955 was prepared from a culture grown on a nutrient agar, to which additional sporulation enhancement ingredients were added. Plates were harvested with sterile water and endospores were purified by repeated centrifugations and resuspensions in water.
Neutralizer. The neutralizer mixture consisted of 30 g/L polysorbate 80 in water. The solution was intended to neutralize any chemicals so that these would not affect subsequent growth of the bacteria.
The sporicidal activity of a given product is defined by its capacity to reduce at least by 10^3 the amount of Clostridium sporogenes bacterial spores in suspension, in the conditions established in the method.
The product was in contact with a suspension of bacterial spores during an established period of time of 60 minutes. An interfering substance can be added to the suspension, in this case water. Next, the effect of the product is neutralized by adding a neutralizer previously chosen, preceding to the surviving spores count.
• 1. Spore suspension obtained from a spored-form culture of Clostridium sporogenes. • 2. Count of the spore suspension of Clostridium sporogenes. • 3. The possible toxic effect of the neutralizer on the spores in the absence of the product is valued. • 4. […] Results: Results are expressed as the reduction of viability of the spore suspension in regards to: […]
Sporicidal activity is calculated following the criteria of the Standard EN 13704: 2002 R=N×0.1/Na N is cfu/mL of the spore suspension. […] The calculated reduction (R) of a solution of: • 13 μg/mL of LAE is R<10^3 cfu/mL • 26 μg/mL of LAE is R<10^3 cfu/mL • 51 μg/mL of LAE is R>10^3 cfu/mL • 64 μg/mL of LAE is R>10^3 cfu/mL

Consider `CCCCCCCCCCCC(=O)N[C@@H](CCCN=C(N)N)C(=O)OCC.Cl` [LAE, ethyl ester of the lauramide of the arginine monohydrochloride], for which the “concentration displaying sporicidal activity (reduction equal or above 10^3)” value (EN 13704:2002) is given as no less than 51 μg/mL. Further, the “Test of LAE sporicidal activity (Na), surviving spores count” value is 3.3 × 10^3 cfu/mL (LAE 13 μg/mL) and 2.3 × 10^3 cfu/mL (LAE 26 μg/mL).
